Assay [1] addresses T1, Human immunodeficiency virus type 1 integrase (Human immunodeficiency virus 1, UniProt Q7ZJM1). The assay is described as follows: Inhibition of HIV1 recombinant integrase strand transfer activity using [32P]-radiolabeled full-length DNA as substrate after 1 hr by densitometric analysis.
In assay [2] the target is T1, Human immunodeficiency virus type 1 integrase. Nature of the assay: Inhibition of HIV1 recombinant integrase 3' processing activity using [32P]-radiolabeled full-length DNA as substrate after 1 hr by densitometric analysis.
The target is the same in assay [3]. The assay is described as follows: Inhibition of HIV1 recombinant integrase strand transfer activity using precleaved LTR DNA as substrate after 1 hr by densitometric analysis.
Assay [4] addresses Human immunodeficiency virus type 1 integrase (Human immunodeficiency virus 1) (UniProt Q7ZJM1). Nature of the assay: Selectivity ratio of IC50 for HIV1 recombinant integrase strand transfer activity using precleaved LTR DNA as substrate to IC50 for HIV1 recombinant integrase strand transfer activity using [32P]-radiolabeled full-length DNA as substrate.

pIC50: −log10 of the molar value. Some results are limits rather than exact numbers.

Broadly, the pIC50 is −log10 of the IC50, conventionally taken in molar units.

T1 sequence (Q7ZJM1 whole entry): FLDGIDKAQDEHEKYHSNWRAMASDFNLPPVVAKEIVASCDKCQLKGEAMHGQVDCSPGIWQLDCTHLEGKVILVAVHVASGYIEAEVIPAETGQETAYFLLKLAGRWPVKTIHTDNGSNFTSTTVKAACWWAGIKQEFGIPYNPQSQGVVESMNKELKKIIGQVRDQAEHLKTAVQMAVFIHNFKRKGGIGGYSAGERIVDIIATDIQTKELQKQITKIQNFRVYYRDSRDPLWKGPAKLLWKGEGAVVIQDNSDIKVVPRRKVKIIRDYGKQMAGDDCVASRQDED
Human immunodeficiency virus type 1 integrase (Human immunodeficiency virus 1), sequence (Q7ZJM1 as listed by the source): as the sequence (Q7ZJM1 whole entry) above

With `CCCCCCCCCCCCCCCCCCPCCCCCCCCCCCCCC.O=S(=O)(NS(=O)(=O)C(F)(F)F)C(F)(F)F` (stereo not given), the pIC50 in assay [1] and in assay [2] was less than 4.00 each time.
For `CCCCCCCCN(CCCCCCCC)CCCCCCCC`, the pIC50 in assay [1] and in assay [2] was less than 3.48 throughout.
Take `CCCCCCCCCCCCCCCCCC[n+]1ccn(C)c1.O=S(=O)([N-]S(=O)(=O)C(F)(F)F)C(F)(F)F`: the values for the pIC50 in assay [1], in assay [2] and in assay [3] were 5.82, 5.80 and 5.40, respectively.
For `CCCCCCCC[N+]1(C)CCCC1`, the negative logarithm of the IC50 (pIC50) in assay [1] and in assay [2] was less than 4.00 each time.
As for `CCCCCCCCN(C)CCCCCCCC`, the pIC50 in assay [1] and in assay [2] was less than 3.48 in each case.
Regarding `CCCCCCCC[N+](C)(CCCCCCCC)CCCCCCCC` [listing 1 of 2 here], the pIC50 in assay [1] was 5.55; in assay [2] it was 5.17.
`CCCCCCCCCCn1cc[n+](C)c1`: the pIC50 in assay [1] and in assay [2] was less than 3.48 throughout.
For the molecule `CCCCCCCCCCCCCCCCCC[n+]1ccn(C)c1` [listing 1 of 2 here], in assay [1], the pIC50 is 5.85.
As for `CCCCCCCC[n+]1ccccc1`, the pIC50 in assay [1] and in assay [2] was less than 4.00 each time.
For the molecule `CN(C)C(N(C)C)N(C)C`, the pIC50 in assay [1] and in assay [2] was less than 4.00 throughout.
As to `CCCCCCCC[N+](C)(CCCCCCCC)CCCCCCCC` [listing 2 of 2 here], the pIC50 is 5.21 in assay [1] and 5.05 in assay [2].
Consider `CCCCCCCCCCn1ccnc1`, for which the pIC50 in assay [1] and in assay [2] was less than 3.48 throughout.
With `CCCCCCCC[n+]1ccn(C)c1`, the pIC50 in assay [1] and in assay [2] was less than 4.00 each time.
On to `CCCCCCCC[N+](C)(CCCCCCCC)CCCCCCCC.O=S(=O)([N-]S(=O)(=O)C(F)(F)F)C(F)(F)F`, for which the pIC50 in assay [1] was 5.18; in assay [2] it was less than 4.00.
Regarding `C[N+](C)(C)C.O=C1O[B-]2(OC1=O)OC(=O)C(=O)O2`, the figures for the pIC50 in assay [1] and in assay [2] were 3.51 and less than 3.48, respectively.
For `CCCCCCCCCCCCn1cc[n+](C)c1`, the negative-log IC50 (pIC50) was 4.44 in assay [1] and 4.14 in assay [2].
Regarding `C[N+](C)(C)C.FC(F)(F)C(F)(F)[P-](F)(F)(F)(C(F)(F)C(F)(F)F)C(F)(F)C(F)(F)F`, the pIC50 was 4.41 in assay [1] and 3.86 in assay [2].
In the case of `CCCCCCCCCCCCCCCCCCn1ccnc1`, the pIC50 in assay [1] and in assay [2] was less than 3.48 in each case.
Consider `CCCCCCCCCCCCCCCCCC[n+]1ccn(C)c1` [listing 2 of 2 here], for which the pIC50 was 5.96 in assay [1], 5.77 in assay [2] and 5.46 in assay [3].
For `CCCCCCCCCCCCCCCCn1cc[n+](C)c1`, the Ratio IC50 in assay [4] stood at 3. The pIC50 is 5.89 in assay [1], 5.60 in assay [2] and 5.25 in assay [3].
Regarding `CCCCCCCCCCCCCCn1cc[n+](C)c1`, the pIC50 in assay [1] is 4.69; in assay [2] it was 4.26.

The record behind these values is ChEMBL document CHEMBL3217518, “Biological evaluation of imidazolium- and ammonium-based salts as HIV-1 integrase inhibitors” (Medchemcomm, 2011).
